Data taken from PubChem BioAssay AID2060498 (Molecular Pharmacology Branch, DTP, NCI, 2025).
pIC50: −log10 of the molar value. Values joined by “and” are separate entries in the source; they are usually repeats but may differ in a detail not shown here. Equal values may be shown once.

Tested on: 171881-019-R-J1-PDC tumor spheroids, viability
Assay: Anticancer human tumor 171881-019-R-J1-PDC patient-derived invasive breast carcinoma cell line growth inhibition [GQUAD]
Conditions: spheroids with HUVEC and MSC; for viability, T/C: stronger effect = lower value
Text: DNA G-quadruplex Stabilizer Agents in Combinations in Complex Spheroids
A high-throughput screen of multi-cell type tumor spheroids was designed to identify active combinations of DNA G-quadruplex stabilizer agents and targeted small molecules. Complex spheroids include a stromal component modeled by human endothelial cells (HUVEC) and fibroblasts modeled by human mesenchymal stem cells (MSCs). The concentration ranges selected for each drug and investigational agent were based upon clinically achievable concentrations if the clinical Cmax of the agent was known.
Compounds. The drugs and investigational agents: pidnarulex (CX-5461; NSC782164), APTO-253 (NSC789042), BRACO-19 (NSC847499), peposertib (NSC802822), ceralasertib (NSC780249), elimusertib (NSC800525), camonsertib (NSC841442), AZD-1390 (NSC803789), olaparib (NSC753686), talazoparib (NSC767125), ART-558 (NSC835418), sotorasib (NSC818433), MRTX-1133 (NSC836407), SN-38 (NSC673596), topotecan (NSC609699), etoposide (NSC141540), doxorubicin (NSC123127), gemcitabine (NSC613327), 5-fluorouracil (NSC19893), paclitaxel (NSC125973), vemurafenib (NSC761431), panobinostat (NSC761190), R-306465 (JNJ-16241199; NSC773264), adavosertib (NSC754352), TP-3654 (NSC805149), carboplatin (NSC241240), KSQ-4279 (NSC840948), and staurosporine (NSC755774) were obtained from the National Cancer Institute (NCI) Developmental Therapeutics Program Chemical Repository (34). The FDA-approved anticancer drug set is available from the NCI Developmental Therapeutics Program. […] The stock solutions were prepared in dimethyl sulfoxide (DMSO, Sigma-Aldrich, St. Louis, MO, cat. D2650) at 800-fold the tested concentration and stored at -70 degrees C prior to their use. All drugs and investigational agents were tested over a range starting from a high concentration at or near the clinical Cmax and decreasing in half-log increments. If the clinical Cmax for an agent had not been determined, the highest concentration tested was 10 microM.
2.3 Cell Culture. All cells were maintained in an incubator at 37 degrees C and 5% CO2 with 95% humidity. The PDC lines were cultured according to standard operating procedures established by the NCI PDMR. All PDCs were thawed and cultured in Matrigel-coated flasks prepared with a working solution of 1X Ham's F-12 nutrient mix, without supplementation (Invitrogen, cat. 11765054), 100 U/mL penicillin-streptomycin (Invitrogen, cat. 15140122), and 2.5% Matrigel (Corning Inc., cat. 354248) for the first three passages. The 857933-349-R-J2-PDC line was cultured in 6C/Colon 1B media, which includes advanced DMEM/F-12 (Thermo Fisher Scientific, cat. 12634028), 10 mM HEPES (Thermo Fisher Scientific, cat. 15630080), 1X GlutaMAX supplement (Thermo Fisher Scientific, cat. 35050061), 0.1 mg/mL primocin (InvivoGen, cat. ant-pm-2), 10% defined fetal bovine serum, heat inactivated (HyClone Laboratories Inc., cat. SH30070.03HI), 50% L-WRN conditioned media (ATCC, cat. CRL-3276), 1.25 mM N-Acetyl-L-cysteine (Sigma-Aldrich, cat. A9165), 10 mM nicotinamide (Sigma-Aldrich, cat. N0636), 1X B-27 supplement (Thermo Fisher Scientific, cat. 17504044), 1X N-2 supplement (Thermo Fisher Scientific, cat. 17502048), 10 microM Y-27632 dihydrochloride (Tocris Bioscience, cat. 1254), and 50 ng/mL human EGF recombinant protein (Thermo Fisher Scientific, cat. PHG0311). The 485176-168-R4-J1-PDC line was cultured in Panc media, which includes all 6C/Colon 1B media components plus 100 ng/mL human FGF-10 (Thermo Fisher Scientific, cat. 100-26), 500 nM SB-431542 (Selleckchem, cat. S1067), and gastrin (Tocris, cat. 3006).
[…]

[1] = compound alone, run of 02/20/2024
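Also: spheroids exposed to compounds for 7 days.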
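For viability, T/C in this document: 100% = DMSO vehicle control viability.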

COc1cc(C2c3cc4c(cc3C(OC3OC5COC(C)OC5C(O)C3O)C3COC(=O)C23)OCO4)cc(OC)c1O (centres undefined)
viability, T/C (compound 0.0316 µM): 96.6% and 95.8% and 105% | viability, T/C (compound 0.1 µM): 89.9% and 93.5% and 94.8% | viability, T/C (compound 0.316 µM): 74.2% and 73.8% and 92.6% | viability, T/C (compound 1 µM): 47.9% and 42.6% and 70.5% | viability, T/C (compound 3.16 µM): 32.8% and 30.4% and 55.1% | viability, T/C (compound 10 µM): 23.5% and 21.9% and 44.2% | pIC50 (curve of compound): 6.02 and 6.11 and 5.28

COc1ccc([C@@H](O)c2cc(-c3ncnc4cc(N5CCOCC5)ccc34)c(F)cc2Cl)nn1
viability, T/C (compound 0.0316 µM): 82.4% and 94.3% and 101% | viability, T/C (compound 0.1 µM): 85.4% and 83% and 76.8% | viability, T/C (compound 0.316 µM): 72.4% and 72.6% and 69.2% | viability, T/C (compound 1 µM): 46.7% and 35.9% and 46.9% | viability, T/C (compound 3.16 µM): 13.4% and 7.19% and 13.3% | viability, T/C (compound 10 µM): 5.21% and 1.35% and 5.78% | pIC50 (curve of compound): 6.08 and 6.20 and 6.16

COc1cccc2c1C(=O)c1c(O)c3c(c(O)c1C2=O)CC(O)(C(=O)CO)CC3OC1CC(N)C(O)C(C)O1 (centres undefined)
viability, T/C (compound 0.0316 µM): 90.7% and 94.5% and 84.5% | viability, T/C (compound 0.1 µM): 52% and 64.5% and 52.4% | viability, T/C (compound 0.316 µM): 39.5% and 50.2% and 35.5% | viability, T/C (compound 1 µM): 13.5% and 20% and 15% | viability, T/C (compound 3.16 µM): 0.2% and 0.32% and 0.18% | viability, T/C (compound 10 µM): 0.4% and 0.19% and 0.39% | pIC50 (curve of compound): 6.86 and 6.62 and 6.89

COc1ncnc(C2CC2)c1-c1ncc2cnn(Cc3ccc(-c4nc(C(F)(F)F)cn4C(C)C)cc3)c2n1
viability, T/C (compound 0.0316 µM): 94% and 84.8% and 93.3% | viability, T/C (compound 0.1 µM): 89.3% and 100% and 93.7% | viability, T/C (compound 0.316 µM): 85.2% and 92.9% and 94% | viability, T/C (compound 1 µM): 100% and 95.7% and 106% | viability, T/C (compound 3.16 µM): 91.3% and 98.7% and 97.9% | viability, T/C (compound 10 µM): 76.1% and 90.1% and 79.6% | pIC50 (curve of compound): < 5.00

Cc1[nH]c2ccc(F)cc2c1-c1nc2c3cccnc3c3ncccc3c2[nH]1
viability, T/C (compound 0.0316 µM): 101% [middle of 12 runs] | viability, T/C (compound 0.1 µM): 103% [middle of 12 runs] | viability, T/C (compound 10 µM): 54.6% [middle of 12 runs] | IC50 [1]: 2.63 µM [middle of 8 runs] | IC50 (compound alone, run of 02/26/2024): 1.65 µM [middle of 4 runs]

Cc1[nH]c2ccccc2c1CCNCc1ccc(/C=C/C(=O)NO)cc1
viability, T/C (compound 0.000999 µM): 93.1% and 97% and 99.3% | viability, T/C (compound 0.00316 µM): 90.7% and 88% and 95.2% | viability, T/C (compound 0.00999 µM): 91.3% and 87.6% and 84.2% | viability, T/C (compound 0.0316 µM): 83.3% and 83.6% and 75.6% | viability, T/C (compound 0.0999 µM): 21.4% and 22.6% and 29% | viability, T/C (compound 0.316 µM): 0.4% and 0.47% and 1.04% | pIC50 (curve of compound): 7.23 and 7.24

Cc1cccc(N(C)C(=O)C2C(O)CCN2c2nc(C)cc(C(F)(F)F)c2C#N)c1 (centres undefined)
viability, T/C (compound 0.0316 µM): 90.3% and 105% and 91.7% | viability, T/C (compound 0.1 µM): 101% and 88.7% and 99.2% | viability, T/C (compound 0.316 µM): 87.6% and 91.7% and 98.8% | viability, T/C (compound 1 µM): 104% and 95.4% and 100% | viability, T/C (compound 3.16 µM): 98.1% and 85.9% and 89.5% | viability, T/C (compound 10 µM): 84.6% and 77.5% and 71.8% | pIC50 (curve of compound): < 5.00

Cc1cnc(CNC(=O)c2c(=O)c3ccc(N4CCCN(C)CC4)nc3n3c2sc2ccccc23)cn1
viability, T/C (compound 0.0316 µM): 94.3% [middle of 12 runs] | viability, T/C (compound 0.1 µM): 85.4% [middle of 12 runs] | viability, T/C (compound 0.316 µM): 76% [middle of 12 runs] | viability, T/C (compound 1 µM): 70.7% [middle of 11 runs] | viability, T/C (compound 3.16 µM): 65% [middle of 12 runs] | viability, T/C (compound 10 µM): 62.7% [middle of 12 runs] | pIC50 [1]: < 5.00

Cn1ncnc1[C@H]1c2n[nH]c(=O)c3cc(F)cc(c23)N[C@@H]1c1ccc(F)cc1
viability, T/C (compound 0.000999 µM): 108% and 102% and 105% | viability, T/C (compound 0.00316 µM): 94.8% and 103% and 86.1% | viability, T/C (compound 0.00999 µM): 95% and 95.7% and 88.2% | viability, T/C (compound 0.0316 µM): 86.3% and 102% and 97.5% | viability, T/C (compound 0.0999 µM): 88.8% and 91.6% and 81.5% | viability, T/C (compound 0.316 µM): 94.1% and 80.5% and 73.1% | pIC50 (curve of compound): < 6.50

Nc1ccn(C2OC(CO)C(O)C2(F)F)c(=O)n1 (centres undefined)
viability, T/C (compound 0.0316 µM): 24% and 35.9% and 25.5% | viability, T/C (compound 0.1 µM): 30.8% and 38.8% and 28.2% | viability, T/C (compound 0.316 µM): 39.4% and 47.6% and 37.4% | viability, T/C (compound 1 µM): 37.8% and 48.4% and 37.6% | viability, T/C (compound 3.16 µM): 35.4% and 45.9% and 35.1% | viability, T/C (compound 10 µM): 31.4% (2×) and 44% | pIC50 (curve of compound): > 7.50

O=C(NO)c1cnc(N2CCN(S(=O)(=O)c3ccc4ccccc4c3)CC2)nc1
viability, T/C (compound 0.0316 µM): 77.1% and 89.5% and 81.1% | viability, T/C (compound 0.1 µM): 74% and 76.3% and 64.2% | viability, T/C (compound 0.316 µM): 44.3% and 39.6% and 41.4% | viability, T/C (compound 1 µM): 0.86% and 0.61% and 2.4% | viability, T/C (compound 3.16 µM): 0.14% and 0.11% and 0.19% | viability, T/C (compound 10 µM): 0.33% and 0.21% and 0.18% | pIC50 (curve of compound): 6.59 and 6.65 and 6.70

O=C(c1cc(Cc2n[nH]c(=O)c3ccccc23)ccc1F)N1CCN(C(=O)C2CC2)CC1
viability, T/C (compound 0.0316 µM): 96.1% and 101% and 87.5% | viability, T/C (compound 0.1 µM): 94.4% and 97.5% and 96.8% | viability, T/C (compound 0.316 µM): 94.5% and 105% and 103% | viability, T/C (compound 1 µM): 103% and 101% and 96.6% | viability, T/C (compound 3.16 µM): 100% and 97.8% and 95.5% | viability, T/C (compound 10 µM): 89.8% and 88.3% and 89.4% | pIC50 (curve of compound): < 5.00

O=c1[nH]cc(F)c(=O)[nH]1
viability, T/C (compound 0.0316 µM): 82.5% and 74.1% and 82.2% | viability, T/C (compound 0.1 µM): 61.5% and 60.6% and 75.6% | viability, T/C (compound 0.316 µM): 61.1% and 61.8% and 73.7% | viability, T/C (compound 1 µM): 57.7% and 55.4% and 66.4% | viability, T/C (compound 3.16 µM): 51.6% and 51.2% and 63.5% | viability, T/C (compound 10 µM): 52.5% and 54.1% and 66.9% | pIC50 (curve of compound): < 5.00
